Measurements taken from US8906904B2, “Alkoxy pyrazoles as soluble guanylate cyclase activators” (Boehringer Ingelheim International GmbH, priority 2012, dated 2014).
Converted amounts (≈) assume the structure as drawn.

What was measured:
[1] = Assessment of solubility (McIlvaine buffers, 24 h shake, UPLC-UV); type: physicochemical; details: kinetic from dmso stock
Procedure, shortened: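 Compounds from 10 mM DMSO stocks were shaken for 24 h at room temperature in McIlvaine buffers at pH 2.2, 4.5 and 6.8 (2.5% v/v DMSO final), then filtered. Filtrates were quantified by UPLC-UV at 254 nm against a 50:50 acetonitrile/water reference assumed fully dissolved, as a single determination.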

[2] = target: T1, human soluble guanylate cyclase alpha 1 and beta 1 subunits (sGC) (Homo sapiens, UniProt Q02108+Q02153); experiment: sGC cellular activator assay (cGMP, HTRF); type: cell-based; details: CHO cells stably expressing human sGC alpha 1/beta 1, preincubated with 40 microM ODQ; cGMP readout; assay run with and without 50% human serum, Table 2 does not say which
T1 construct: expressed in transfected cells; host or cells: Chinese hamster ovary (CHO) cells, stably transfected
T1 sequence (Q02108 1-690): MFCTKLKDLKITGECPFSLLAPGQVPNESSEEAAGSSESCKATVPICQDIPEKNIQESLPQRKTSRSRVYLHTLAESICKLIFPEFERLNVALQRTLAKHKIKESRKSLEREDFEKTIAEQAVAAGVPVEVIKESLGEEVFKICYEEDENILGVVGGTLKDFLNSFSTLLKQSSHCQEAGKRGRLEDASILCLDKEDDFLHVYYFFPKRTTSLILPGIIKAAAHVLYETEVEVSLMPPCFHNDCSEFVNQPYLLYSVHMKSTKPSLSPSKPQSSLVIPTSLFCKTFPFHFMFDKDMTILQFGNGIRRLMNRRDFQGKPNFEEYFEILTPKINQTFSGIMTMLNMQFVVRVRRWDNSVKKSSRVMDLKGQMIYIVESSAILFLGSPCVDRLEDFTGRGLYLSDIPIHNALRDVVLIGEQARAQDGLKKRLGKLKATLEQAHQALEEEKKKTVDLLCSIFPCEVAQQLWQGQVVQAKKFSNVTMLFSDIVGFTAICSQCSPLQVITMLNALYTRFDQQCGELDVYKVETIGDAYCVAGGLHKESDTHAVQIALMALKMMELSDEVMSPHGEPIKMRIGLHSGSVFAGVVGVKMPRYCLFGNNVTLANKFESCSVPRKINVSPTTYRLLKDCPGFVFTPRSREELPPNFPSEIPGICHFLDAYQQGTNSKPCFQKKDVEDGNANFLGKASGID
T1 sequence (Q02153 1-619): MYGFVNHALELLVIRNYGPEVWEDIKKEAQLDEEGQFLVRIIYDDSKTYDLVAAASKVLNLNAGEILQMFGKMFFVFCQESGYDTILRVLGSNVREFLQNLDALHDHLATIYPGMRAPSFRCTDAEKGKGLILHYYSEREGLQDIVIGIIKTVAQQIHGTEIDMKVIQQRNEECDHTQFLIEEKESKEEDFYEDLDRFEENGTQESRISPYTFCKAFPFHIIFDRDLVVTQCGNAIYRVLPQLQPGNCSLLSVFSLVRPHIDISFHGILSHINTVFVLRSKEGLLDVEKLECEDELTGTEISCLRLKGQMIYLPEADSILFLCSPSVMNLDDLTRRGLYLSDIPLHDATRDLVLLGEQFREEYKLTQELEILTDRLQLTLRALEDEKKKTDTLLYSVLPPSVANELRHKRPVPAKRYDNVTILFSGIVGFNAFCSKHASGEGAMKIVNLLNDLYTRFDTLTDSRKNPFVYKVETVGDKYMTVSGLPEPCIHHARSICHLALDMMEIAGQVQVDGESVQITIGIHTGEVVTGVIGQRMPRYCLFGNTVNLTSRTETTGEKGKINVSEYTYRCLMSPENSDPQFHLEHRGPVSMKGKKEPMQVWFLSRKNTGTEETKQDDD
Procedure, shortened: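 Heme-oxidized conditions: ODQ (40 microM, 1 h) pretreatment of CHO cells stably expressing human α1/β1 sGC, in buffer containing 0.1% BSA and IBMX.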

solubility at 24 h ([1]; pH 2.2, aqueous buffer) [µg/mL] | solubility at 24 h ([1]; pH 4.5, aqueous buffer) [µg/mL] | solubility at 24 h ([1]; pH 6.8, aqueous buffer) [µg/mL] | EC50 [2] [nM] | Structure (SMILES)
130 (≈ 229 µM) | 110 (≈ 193 µM) | 110 (≈ 193 µM) | 17 | COc1c(C(=O)O)cnn1-c1cccc(-c2cccc(C)c2OCc2ccc3c(c2C)CCN([C@H]2CCCOC2)C3)n1 [Compound 141]
96 (≈ 169 µM) | 74 (≈ 130 µM) | 78 (≈ 137 µM) | 58 | CCOc1c(C(=O)O)cnn1-c1cccc(-c2cccc(C)c2OCc2ccc3c(c2C)CCN([C@@H]2CCOC2)C3)n1 [Compound 126]

The next lines start with the molecule.

Structure (SMILES) | solubility at 24 h ([1]; pH 2.2, aqueous buffer) [µg/mL] | solubility at 24 h ([1]; pH 4.5, aqueous buffer) [µg/mL] | solubility at 24 h ([1]; pH 6.8, aqueous buffer) [µg/mL] | EC50 [2] [nM]
COc1c(C(=O)O)cnn1-c1cccc(-c2cccc(C)c2OCc2ccc3c(c2C)CCN(C2CCOCC2)C3=O)n1 [Compound 167, 5-Methoxy-1-(6-{3-methyl-2-[5-methyl-1-oxo-2-(tetrahydro-pyran-4-yl)-1,2,3,4-tetrahydro-isoquinolin-6-ylmethoxy]-phenyl}-pyridin-2-yl)-1H-pyrazole-4-carboxylic acid] | 2.1 (≈ 3.6 µM) | 5.9 (≈ 10.1 µM) | 83 (≈ 142 µM) | 30
CCOc1c(C(=O)O)cnn1-c1cccc(-c2cccc(C)c2OCc2ccc3c(c2)CCN(CC2CCCO2)C3)n1 (stereo not drawn) [Compound 101, 5-ethoxy-1-(6-{3-methyl-2-[2-(tetrahydro-furan-2-ylmethyl)-1,2,3,4-tetrahydro-isoquinolin-6-ylmethoxy]-phenyl}-pyridin-2-yl)-1H-pyrazole-4-carboxylic acid] | 90 (≈ 158 µM) | 73 (≈ 128 µM) | 74 (≈ 130 µM) | 110
COc1c(C(=O)O)cnn1-c1cccc(-c2cccc(C)c2OCc2cc(C)c3c(c2C)CCN(C2COC2)C3)n1 [Compound 178] | 100 (≈ 180 µM) | 72 (≈ 130 µM) | 86 (≈ 155 µM) | 14
CCOc1c(C(=O)O)cnn1-c1cccc(-c2cccc(C)c2OCc2ccc3c(c2F)CCN(C2CCOCC2)C3)n1 [Compound 159] | 86 (≈ 147 µM) | 55 (≈ 93.8 µM) | 51 (≈ 86.9 µM) | 53
